From US11441168B2, “Method for assaying the activity of spermidine/spermine N1-acetyltransferase” (BioMark Technologies Inc., priority 2011, dated 2022)

Legend:
[1] = molecular target: spermidine/spermine N1-acetyltransferase (SSAT) (Rattus norvegicus, UniProt Q6P9U6); test: SSAT-mediated N-acetylation enzyme kinetics in plateable cryopreserved primary rat hepatocytes (LC/MS/MS, Lineweaver-Burk); details: for Vmax of N-acetylation by SSAT: confirmatory experiment, primary rat hepatocytes, 24-hour incubation, Lineweaver-Burk estimate
Sequence of spermidine/spermine N1-acetyltransferase (SSAT) (Q6P9U6 1-171): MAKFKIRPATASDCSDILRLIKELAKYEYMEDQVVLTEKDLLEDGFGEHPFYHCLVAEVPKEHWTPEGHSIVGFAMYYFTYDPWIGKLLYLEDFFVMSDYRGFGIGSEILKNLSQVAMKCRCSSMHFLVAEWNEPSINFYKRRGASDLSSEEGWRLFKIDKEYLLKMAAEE
Protocol: (§1) Refer to the table below for the testing concentrations. Metabolites collected from the incubation reactions were measured by LC/MS/MS analysis.
Immediately before use, cryopreserved primary rat hepatocytes were thawed in a water bath at 37° C. and resuspended in pre-warmed InVitroGRO™ CP Rat Medium. […] Hepatocyte concentrations were adjusted by addition with InVitroGRO™ CP Rat Medium to achieve the target plating concentration of 0.70×10^6 cells/m L. Aliquots of hepatocytes were plated (0.5 mL/well) in 24-well CellAffix culture plates and the plates were placed in an incubator maintained at 37° C. with a highly humidified atmosphere of 95% air and 5% […] for 4 hours to allow hepatocyte attachment before dosing with the selective substrate solutions.
(§2) Following cell attachment, the culture medium was aspirated from each well, and replaced with pre-warmed InVitroGRO™ HI Rat Medium (added with Torpedo antibiotic mix in the confirmatory experiment) and the substrate solution at the appropriate concentration. The treated cells were returned to incubation for 24 hours. Upon completion of incubation, the medium from each well was collected into 1.7-mL vials containing ice-cold methanol and stored at nominal −80° C. (−72° C. to −88° C.) prior to LC/MS/MS analysis. Hepatocytes remaining in the wells were subjected to MTT assay to evaluate the cytotoxic potential of the substrates at the testing concentrations.
Four LC/MS/MS assays were employed to individually quantitate the four metabolites in the incubation samples.
Enzyme kinetics was evaluated based on the enzymatic conversion of the substrate at a range of testing concentrations into their N-acetylated metabolites over a 24-hour incubation reaction time course. Metabolite formation from different testing substrate concentrations after incubation was measured by LC/MS/MS and the resulting data constructed into Lineweaver-Burk plots of the double reciprocal of reaction velocity against substrate concentrations to estimate the Km and Vmax values of SSAT-mediated N-acetylation of each substrate tested.

[2] = system: rat hepatocytes; details: for Substrate concentration resulting in extensive cytotoxicity / Substrate concentration that resulted in extensive cytotoxicity: rat, 24 h
Protocol: as §1, §2
Upon collection of the reaction medium, an aliquot of 0.5 mg/mL MTT in KHB was added immediately to the remaining hepatocytes in each well and then incubated for approximately 30 minutes. Following incubation, the medium was replaced with dimethyl sulfoxide (DMSO) to dissolve the formazan. An aliquot from each well was measured for absorbance at 540 nm on a 96-well flat bottom plate with a microplate reader and DMSO for background absorbance correction.
The cytotoxic potential of the substrates to rat hepatocytes was evaluated by MTT cytotoxicity assays. The assays were performed in both the pilot and the confirmatory experiments.

[3] = molecular target: SSAT in cytosolic liver fraction of transgenic mice (Mus musculus, UniProt P48026); details: read-out: Km of spermidine acetylation (literature reference); cited from earlier work
Sequence of SSAT in cytosolic liver fraction of transgenic mice (P48026 whole entry): as the sequence (Q6P9U6 1-171) above, with V35I, L42Q counted along it

Row | Compound | Vmax of N-acetylation by SSAT [1] [pmol/min/million cells] | Cytotoxicity to rat hepatocytes (in words) [2] | Substrate concentration resulting in extensive cytotoxicity [2] | Substrate concentration that resulted in extensive cytotoxicity [2] | Km at 24 h ([1]; rat) [µM] | Km [3] [µM]
1 | NC12CC3CC(CC(C3)C1)C2 [amantadine] | 0.00197 | Significant cytotoxicity | approximately 1140 μM | approximately 1170 μM | – | –
2 | CC(N)C12CC3CC(CC(C3)C1)C2 (centres unmarked) [rimantadine] | 0.364 | Significant cytotoxicity | ~220 µM | ~280 µM | 1840 | –
3 | NCCCCNCCCN [spermidine] | 7.21 | No cytotoxicity | – | – | – | 267 ± 46
4 | Cc1cccc(C)c1NC(=O)C(C)N (centres unmarked) [tocainide] | 0.617 | No cytotoxicity | – | – | – | –
